Experimental data taken from patent publication US20110040086A1, “Novel Beta-Lactam Antibiotics, Methods for Their Production, and Their Use” (DRITTE PATENTPORTFOLIO BETEILIGUNGSGESELLSCHAFT MB, priority 2007, published 2011).

Key:
[1] = tested on: Enterococcus faecalis 769; assay: agar diffusion test (Test System II, multi-resistant germs); format: cell-based; design: key: r = resistant (no detectable zone of inhibition)
Method in brief: (§1)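 Müller-Hinton II plates spread in three directions with McFarland 0.5 bacterial suspension carry three sensi-discs with 10, 50 and 100 μg substance from methanol or water. After 18-20 h at 37 °C, zone-of-inhibition diameters are measured.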

[2] = tested on: Staphylococcus aureus 315; assay: as above; format: cell-based; design: key: r = resistant (no detectable zone of inhibition)
Method in brief: as §1

[3] = tested on: S. epidermidis 125; assay: as above; format: cell-based, Staphylococcus epidermidis; design: key to Diameter of zone of inhibition: r = resistant (no detectable zone of inhibition)
Method in brief: as §1

[4] = tested on: S. aureus 38418; assay: as above; format: cell-based, Staphylococcus aureus
Method in brief: as §1

[5] = tested on: S. aureus ATCC 6538; assay: as above; format: cell-based, Staphylococcus aureus
Method in brief: as §1

[6] = tested on: S. aureus 36881; assay: as above; format: cell-based, Staphylococcus aureus; design: key: r = resistant (no detectable zone of inhibition)
Method in brief: as §1

[7] = tested on: S. aureus 526; assay: as above; format: cell-based, Staphylococcus aureus; design: key: r = resistant (no detectable zone of inhibition)
Method in brief: as §1

[8] = tested on: S. aureus 34289; assay: as above; format: cell-based, Staphylococcus aureus; design: key: r = resistant (no detectable zone of inhibition)
Method in brief: as §1

[9] = tested on: S. aureus 520; assay: as above; format: cell-based, Staphylococcus aureus; design: key: r = resistant (no detectable zone of inhibition)
Method in brief: as §1

[10] = tested on: S. aureus 33490; assay: as above; format: cell-based, Staphylococcus aureus; design: key: r = resistant (no detectable zone of inhibition)
Method in brief: as §1

[11] = tested on: S. aureus North Germany strain; assay: as above; format: cell-based, Staphylococcus aureus; design: key: r = resistant (no detectable zone of inhibition)
Method in brief: as §1

[12] = tested on: S. aureus 39105; assay: as above; format: cell-based, Staphylococcus aureus; design: key: r = resistant (no detectable zone of inhibition)
Method in brief: as §1

[13] = tested on: Bacillus megaterium SBUG 1152; assay: agar diffusion test (Test System 1, antimicrobial effect); format: cell-based
Method in brief: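 Paper discs loaded with 10 μg, 50 μg or 100 μg of test substance (methanol or water solution) placed on nutrient agar seeded with 10^6 cells of a 17-h B. megaterium culture. After 20 h at 37° C., zone of inhibition measured as diameter in mm.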

[14] = tested on: Staphylococcus aureus ATCC 6538; assay: mouse infected with Staphylococcus aureus infection model (survival); format: in vivo, BALB/c mice; settings: 2 × 0.5 mg (25 mg/kg) i.p.
Method in brief: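 Survival model: S. aureus grown to extinction 0.6 at 550 nm and injected i.p. (10 μl/g body weight) into cyclophosphamide-pretreated BALB/c mice (250 then 100 mg/kg i.p.), ≥3 animals per arm. Test antibiotic dosed i.p. at 30 min and again later at the same concentration, vehicle PBS/3% DMSO.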

7-{2-[2-(2-hydroxyethylcarbamoyl)-3,6-dioxocyclohexa-1,4-dienylamino]-2-phenyl-acetylamino}-desacetoxycephalosporanic acid [1e]
Diameter of zone of inhibition ([1]; Quantity n 0.029): r
Diameter of zone of inhibition ([1]; Quantity n 0.14): r
Diameter of zone of inhibition ([1]; Quantity n 0.29): r
Diameter of zone of inhibition ([2]; Quantity n 0.029): r
Diameter of zone of inhibition ([2]; Quantity n 0.14): r
Diameter of zone of inhibition ([2]; Quantity n 0.29): 12 mm
Diameter of zone of inhibition ([3]; Quantity n 0.029): r
Diameter of zone of inhibition ([3]; Quantity n 0.14): 24 mm
Diameter of zone of inhibition ([3]; Quantity n 0.29): 28 mm
Diameter of zone of inhibition ([4]; Quantity n [mol] 0.029): 14 mm
Diameter of zone of inhibition ([4]; Quantity n [mol] 0.14): 26 mm
Diameter of zone of inhibition ([4]; Quantity n [mol] 0.29): 30 mm
Diameter of zone of inhibition ([5]; Quantity n 0.029): 20 mm
Diameter of zone of inhibition ([5]; Quantity n 0.14): 30 mm
Diameter of zone of inhibition ([5]; Quantity n 0.29): 32 mm
Diameter of zone of inhibition ([6]; Quantity n 0.029): r
Diameter of zone of inhibition ([6]; Quantity n 0.14): r
Diameter of zone of inhibition ([6]; Quantity n 0.29): 14 mm
Diameter of zone of inhibition ([7]; Quantity n 0.029): r
Diameter of zone of inhibition ([7]; Quantity n 0.14): r
Diameter of zone of inhibition ([7]; Quantity n 0.29): r
Diameter of zone of inhibition ([8]; Quantity n [mol] 0.029): r
Diameter of zone of inhibition ([8]; Quantity n [mol] 0.14): r
Diameter of zone of inhibition ([8]; Quantity n [mol] 0.29): r
Diameter of zone of inhibition ([9]; Quantity n [mol] 0.029): r
Diameter of zone of inhibition ([9]; Quantity n [mol] 0.14): r
Diameter of zone of inhibition ([9]; Quantity n [mol] 0.29): r
Diameter of zone of inhibition ([10]; Quantity n [μmol] 0.029): 8 mm
Diameter of zone of inhibition ([10]; Quantity n [μmol] 0.14): 16 mm
Diameter of zone of inhibition ([10]; Quantity n [μmol] 0.29): 20 mm
Diameter of zone of inhibition ([11]; Quantity n 0.029): r
Diameter of zone of inhibition ([11]; Quantity n 0.14): 10 mm
Diameter of zone of inhibition ([11]; Quantity n 0.29): 16 mm
Diameter of zone of inhibition ([12]; Quantity n 0.029): r
Diameter of zone of inhibition ([12]; Quantity n 0.14): r
Diameter of zone of inhibition ([12]; Quantity n 0.29): 14 mm
Diameter of zone of inhibition ([13]; Quantity n 0.029): 20 mm
Diameter of zone of inhibition ([13]; Quantity n 0.14): 28 mm
Diameter of zone of inhibition ([13]; Quantity n 0.29): 32 mm
Survival/tested mice n/n [14]: 3/3

7-{2-2-(2-hydroxyethylcarbamoyl)-3,6-dioxyocyclohexa-1,4-dienylamino]-2-(4-hydroxyphenyl)-acetylamino}-desacetoxycephalosporanic acid [1a]
Diameter of zone of inhibition ([1]; Quantity n 0.019): r
Diameter of zone of inhibition ([1]; Quantity n 0.1): r
Diameter of zone of inhibition ([1]; Quantity n 0.19): r
Diameter of zone of inhibition ([2]; Quantity n 0.019): r
Diameter of zone of inhibition ([2]; Quantity n 0.1): 10 mm
Diameter of zone of inhibition ([2]; Quantity n 0.19): 16 mm
Diameter of zone of inhibition ([3]; Quantity n 0.019): 14 mm
Diameter of zone of inhibition ([3]; Quantity n 0.1): 24 mm
Diameter of zone of inhibition ([3]; Quantity n 0.19): 28 mm
Diameter of zone of inhibition ([4]; Quantity n [mol] 0.019): 14 mm
Diameter of zone of inhibition ([4]; Quantity n [mol] 0.1): 24 mm
Diameter of zone of inhibition ([4]; Quantity n [mol] 0.19): 26 mm
Diameter of zone of inhibition ([5]; Quantity n 0.019): 20 mm
Diameter of zone of inhibition ([5]; Quantity n 0.1): 28 mm
Diameter of zone of inhibition ([5]; Quantity n 0.19): 30 mm
Diameter of zone of inhibition ([6]; Quantity n 0.019): r
Diameter of zone of inhibition ([6]; Quantity n 0.1): 10 mm
Diameter of zone of inhibition ([6]; Quantity n 0.19): 16 mm
Diameter of zone of inhibition ([7]; Quantity n 0.019): r
Diameter of zone of inhibition ([7]; Quantity n 0.1): r
Diameter of zone of inhibition ([7]; Quantity n 0.19): 10 mm
Diameter of zone of inhibition ([8]; Quantity n [mol] 0.019): r
Diameter of zone of inhibition ([8]; Quantity n [mol] 0.1): r
Diameter of zone of inhibition ([8]; Quantity n [mol] 0.19): r
Diameter of zone of inhibition ([9]; Quantity n [mol] 0.019): r
Diameter of zone of inhibition ([9]; Quantity n [mol] 0.1): r
Diameter of zone of inhibition ([9]; Quantity n [mol] 0.19): 12 mm
Diameter of zone of inhibition ([10]; Quantity n [μmol] 0.019): r
Diameter of zone of inhibition ([10]; Quantity n [μmol] 0.1): 14 mm
Diameter of zone of inhibition ([10]; Quantity n [μmol] 0.19): 18 mm
Diameter of zone of inhibition ([11]; Quantity n 0.019): r
Diameter of zone of inhibition ([11]; Quantity n 0.1): 16 mm
Diameter of zone of inhibition ([11]; Quantity n 0.19): 18 mm
Diameter of zone of inhibition ([12]; Quantity n 0.019): r
Diameter of zone of inhibition ([12]; Quantity n 0.1): r
Diameter of zone of inhibition ([12]; Quantity n 0.19): 14 mm
Diameter of zone of inhibition ([13]; Quantity n 0.019): 22 mm
Diameter of zone of inhibition ([13]; Quantity n 0.1): 30 mm
Diameter of zone of inhibition ([13]; Quantity n 0.19): 32 mm
Survival/tested mice n/n [14]: 9/9

7-[2-(2-ethoxycarbonyl-3,6-dioxocyclohexa-1,4-dienylamino)-2-(4-hydroxyphenyl)-acetylamino]-desacetoxycephalosporanic acid [1d]
Diameter of zone of inhibition ([1]; Quantity n 0.029): r
Diameter of zone of inhibition ([1]; Quantity n 0.14): r
Diameter of zone of inhibition ([1]; Quantity n 0.29): r
Diameter of zone of inhibition ([2]; Quantity n 0.029): r
Diameter of zone of inhibition ([2]; Quantity n 0.14): r
Diameter of zone of inhibition ([2]; Quantity n 0.29): 8 mm
Diameter of zone of inhibition ([3]; Quantity n 0.029): 10 mm
Diameter of zone of inhibition ([3]; Quantity n 0.14): 20 mm
Diameter of zone of inhibition ([3]; Quantity n 0.29): 24 mm
Diameter of zone of inhibition ([4]; Quantity n [mol] 0.029): 10 mm
Diameter of zone of inhibition ([4]; Quantity n [mol] 0.14): 20 mm
Diameter of zone of inhibition ([4]; Quantity n [mol] 0.29): 24 mm
Diameter of zone of inhibition ([5]; Quantity n 0.029): 14 mm
Diameter of zone of inhibition ([5]; Quantity n 0.14): 22 mm
Diameter of zone of inhibition ([5]; Quantity n 0.29): 26 mm
Diameter of zone of inhibition ([6]; Quantity n 0.029): r
Diameter of zone of inhibition ([6]; Quantity n 0.14): 14 mm
Diameter of zone of inhibition ([6]; Quantity n 0.29): 18 mm
Diameter of zone of inhibition ([7]; Quantity n 0.029): r
Diameter of zone of inhibition ([7]; Quantity n 0.14): r
Diameter of zone of inhibition ([7]; Quantity n 0.29): r
Diameter of zone of inhibition ([8]; Quantity n [mol] 0.029): r
Diameter of zone of inhibition ([8]; Quantity n [mol] 0.14): r
Diameter of zone of inhibition ([8]; Quantity n [mol] 0.29): r
Diameter of zone of inhibition ([9]; Quantity n [mol] 0.029): r
Diameter of zone of inhibition ([9]; Quantity n [mol] 0.14): r
Diameter of zone of inhibition ([9]; Quantity n [mol] 0.29): r
Diameter of zone of inhibition ([10]; Quantity n [μmol] 0.029): r
Diameter of zone of inhibition ([10]; Quantity n [μmol] 0.14): 14 mm
Diameter of zone of inhibition ([10]; Quantity n [μmol] 0.29): 16 mm
Diameter of zone of inhibition ([11]; Quantity n 0.029): r
Diameter of zone of inhibition ([11]; Quantity n 0.14): 10 mm
Diameter of zone of inhibition ([11]; Quantity n 0.29): 12 mm
Diameter of zone of inhibition ([12]; Quantity n 0.029): r
Diameter of zone of inhibition ([12]; Quantity n 0.14): r
Diameter of zone of inhibition ([12]; Quantity n 0.29): 14 mm
Diameter of zone of inhibition ([13]; Quantity n 0.029): 18 mm
Diameter of zone of inhibition ([13]; Quantity n 0.14): 30 mm
Diameter of zone of inhibition ([13]; Quantity n 0.29): 34 mm
Survival/tested mice n/n [14]: 4/6
